Test results from patent US5157049A, “Method of treating cancers sensitive to treatment with water soluble derivatives of taxol” (The United States of America as represented by the …, priority 1991, dated 1992).
Where “and” joins values, the source holds several entries; their conditions need not be identical. Equal values may be shown once. Entries after “also recorded” stand apart in the source; their conditions may differ. Where a name gives a salt, the structure may show the parent alone.

Columns and labels:
B16 Melanoma = experiment: Antitumor activity in the B16 melanoma system (NCI screen); settings: for % T/C (median lifetime) / Survivors Day 4 / WT Diff, g (T - C) / cures (live animals day 60): B16, Q01D × 09; for antitumor activity (in words): summary statements on in vivo screening, Table VI
Experimental: Another approach to make basic derivatives is based on the concept of taking an existing hydrolysable derivative and further modifying it to form a derivative that allows for stepwise hydrolysis.
Antitumor Activity in the B16 Melanoma System^a
^a Screening was carried out under the auspices of the National Cance
Institute. For detailed explanations of procedures and data, see
Instruction 14, Screening Data Summary Interpretation and Outline of
Current Screen, Drug Evaluation Branch, Developmental Therapeutics
Program, Division of Cancer Treatment, National Cancer Institute,
Bethesda, Maryland 20892.
^b Q01D × 09. Single dose for 9 days; given in milligrams per
kilogram body weight per injection.
^c Abbreviations: survivors day 4, live animals on the fourth day of
testing/total animal; wt diff, g (T - C), the difference in body weight i
grams between test and control animals; % T/C, the median lifetime of tes
animals divided by the median lifetime of control animals, times 100; for
the solid tumor system % T/C is 100 × (change in treated tumor wt 1
day 11 - day 0)/change in control tumor wt.) if the tumor grows or 100
× (change in treated tumor wt./initial treated tumor wt.) if the
tumor regresses; cures, number of live animals on the last day of
evaluation for the B16 melanoma system (day 60) or number of animals
without measurable tumor on day 11 for the MX1 mammary tumor system.

Aqueous solubility = settings: water
[1] = 7 mg/kg (so in the source) per injection

## CC(=O)O[C@H]1C(=O)[C@@]2(C)[C@H]([C@H](OC(=O)c3ccccc3)[C@]3(O)C[C@H](OC(=O)[C@H](OC(=O)CCCC(=O)O)[C@@H](NC(=O)c4ccccc4)c4ccccc4)C(C)=C1C3(C)C)[C@]1(OC(C)=O)CO[C@@H]1C[C@@H]2O [Example 16]
B16 Melanoma; 6.63 mg/kg per injection
  % T/C (median lifetime): 207%
  Survivors Day 4: 8/8
  WT Diff, g (T - C): 0.4 g
B16 Melanoma; 13.25 mg/kg per injection
  % T/C (median lifetime): 291%
  Survivors Day 4: 8/8
  WT Diff, g (T - C): 0.4 g
B16 Melanoma; 26.5 mg/kg per injection
  % T/C (median lifetime): 239%
  Survivors Day 4: 8/8
  WT Diff, g (T - C): 0.4 g
  cures (live animals day 60): 2
B16 Melanoma; 53 mg/kg per injection
  % T/C (median lifetime): 300%
  Survivors Day 4: 8/8
  WT Diff, g (T - C): 0.4 g
  cures (live animals day 60): 1
B16 Melanoma
  antitumor activity (in words): very active and potent; also recorded: improved biological properties as compared to the corresponding succinates of Examples 12 and 8

## CC(=O)O[C@H]1C(=O)[C@@]2(C)[C@H]([C@H](OC(=O)c3ccccc3)[C@]3(O)C[C@H](OC(=O)[C@H](OC(=O)CCC(=O)O)[C@@H](NC(=O)c4ccccc4)c4ccccc4)C(C)=C1C3(C)C)[C@]1(OC(C)=O)CO[C@@H]1C[C@@H]2O [Example 8, 2'-Succinyltaxol, Triethanolamine Salt]
B16 Melanoma; 6.75 mg/kg per injection
  % T/C (median lifetime): 230%
  cures (live animals day 60): 1
B16 Melanoma; [1]
  % T/C (median lifetime): 314%
  cures (live animals day 60): 3
B16 Melanoma; 13.5 mg/kg per injection
  % T/C (median lifetime): 264%
  cures (live animals day 60): 1
B16 Melanoma; 54 mg/kg per injection
  % T/C (median lifetime): TOXIC
B16 Melanoma
  antitumor activity (in words): much more active than the compound of Example 12; also recorded: especially active and potent
Aqueous solubility
  aqueous solubility: about 1%
  aqueous solubility (in words): greatly improved aqueous solubility; also recorded: although still soluble, the solutions were not clear and became very viscous

## CC(=O)O[C@H]1C(=O)[C@@]2(C)[C@H]([C@H](OC(=O)c3ccccc3)[C@]3(O)C[C@H](OC(=O)[C@H](OC(=O)CCC(=O)O)[C@@H](NC(=O)c4ccccc4)c4ccccc4)C(C)=C1C3(C)C)[C@]1(OC(C)=O)CO[C@@H]1C[C@@H]2O [Example 1, 2' Succinyltaxol]
B16 Melanoma; 2.5 mg/kg per injection
  % T/C (median lifetime): 119%
B16 Melanoma; 5 mg/kg per injection
  % T/C (median lifetime): 154%
B16 Melanoma; 10 mg/kg per injection
  % T/C (median lifetime): 159%
  cures (live animals day 60): 1
B16 Melanoma; 20 mg/kg per injection
  % T/C (median lifetime): 154%
B16 Melanoma; 40 mg/kg per injection
  % T/C (median lifetime): 185%
  cures (live animals day 60): 2
Aqueous solubility
  aqueous solubility (in words): not water soluble

## CC(=O)O[C@H]1C(=O)[C@]2(C)[C@@H](OC(=O)CCC(=O)O)C[C@H]3OC[C@@]3(OC(C)=O)[C@H]2[C@H](OC(=O)c2ccccc2)[C@]2(O)C[C@H](OC(=O)[C@H](OC(=O)CCC(=O)O)[C@@H](NC(=O)c3ccccc3)c3ccccc3)C(C)=C1C2(C)C [Example 2, 2'7-Disuccinyltaxol]
B16 Melanoma; 1 mg/kg (so in the source) per injection
  % T/C (median lifetime): 124%
B16 Melanoma; 2.75 mg/kg per injection
  % T/C (median lifetime): 109%
B16 Melanoma; 5.5 mg/kg per injection
  % T/C (median lifetime): 113%
B16 Melanoma; 22 mg/kg per injection
  % T/C (median lifetime): 105%
B16 Melanoma; 44 mg/kg per injection
  % T/C (median lifetime): 114%
B16 Melanoma
  antitumor activity (in words): considerably less active than the corresponding 2'-mono derivative of Example 1 and its salts
Aqueous solubility
  aqueous solubility (in words): not water soluble

## CC(=O)O[C@H]1C(=O)[C@@]2(C)[C@H]([C@H](OC(=O)c3ccccc3)[C@]3(O)C[C@H](OC(=O)[C@H](OC(=O)CCCC(=O)NCCCN(C)C)[C@@H](NC(=O)c4ccccc4)c4ccccc4)C(C)=C1C3(C)C)[C@]1(OC(C)=O)CO[C@@H]1C[C@@H]2O [Example 25, Aminoamide Derivative of 2'-Glutaryltaxol]
B16 Melanoma
  antitumor activity (in words): extremely potent and active

## CC(=O)O[C@H]1C(=O)[C@@]2(C)[C@H]([C@H](OC(=O)c3ccccc3)[C@]3(O)C[C@H](OC(=O)[C@H](OC(=O)CCCC(=O)O)[C@@H](NC(=O)c4ccccc4)c4ccccc4)C(C)=C1C3(C)C)[C@]1(OC(C)=O)CO[C@@H]1C[C@@H]2O [Example 17]
B16 Melanoma; 6.13 mg/kg per injection
  % T/C (median lifetime): 159%
  Survivors Day 4: 8/8
  WT Diff, g (T - C): 0.4 g
B16 Melanoma; 12.25 mg/kg per injection
  % T/C (median lifetime): 192%
  Survivors Day 4: 8/8
  WT Diff, g (T - C): 0.6 g
B16 Melanoma; 24.5 mg/kg per injection
  % T/C (median lifetime): 225%
  Survivors Day 4: 7/7
  WT Diff, g (T - C): 1.5 g
B16 Melanoma; 49 mg/kg per injection
  % T/C (median lifetime): 339%
  Survivors Day 4: 7/7
  WT Diff, g (T - C): 0.4 g
B16 Melanoma
  antitumor activity (in words): very active and potent; also recorded: improved biological properties as compared to the corresponding succinates of Examples 12 and 8

## CC(=O)O[C@H]1C(=O)[C@]2(C)[C@@H](OC(=O)CCC(=O)O)C[C@H]3OC[C@@]3(OC(C)=O)[C@H]2[C@H](OC(=O)c2ccccc2)[C@]2(O)C[C@H](OC(=O)[C@H](OC(=O)CCC(=O)O)[C@@H](NC(=O)c3ccccc3)c3ccccc3)C(C)=C1C2(C)C [Example 2, Na-Salt]
B16 Melanoma; 2.75 mg/kg per injection, listed as 2, Na-Salt
  % T/C (median lifetime): 120%
B16 Melanoma; 5.5 mg/kg per injection, listed as 2, Na-Salt
  % T/C (median lifetime): 114%
B16 Melanoma; 11 mg/kg per injection
  % T/C (median lifetime): 149%
B16 Melanoma; 22 mg/kg per injection, listed as 2, Na-Salt
  % T/C (median lifetime): 109%
B16 Melanoma; 44 mg/kg per injection, listed as 2, Na-Salt
  % T/C (median lifetime): 166%
B16 Melanoma; listed as 2, sodium salt
  antitumor activity (in words): improved antitumor activity as compared to the free acid; also recorded: considerably less active than the corresponding 2'-mono derivative of Example 1 and its salts
Aqueous solubility; aqueous solubility
  solubility: ~3000 µg/mL

## CC(=O)O[C@H]1C(=O)[C@@]2(C)[C@H]([C@H](OC(=O)c3ccccc3)[C@]3(O)C[C@H](OC(=O)[C@H](OC(=O)CCC(=O)O)[C@@H](NC(=O)c4ccccc4)c4ccccc4)C(C)=C1C3(C)C)[C@]1(OC(C)=O)CO[C@@H]1C[C@@H]2O [Example 12]
B16 Melanoma; 1.25 mg/kg per injection
  % T/C (median lifetime): 111%
B16 Melanoma; 2.5 mg/kg per injection
  % T/C (median lifetime): 159% and 125%
  cures (live animals day 60): 1
B16 Melanoma; 5 mg/kg per injection
  % T/C (median lifetime): 166% and 131%
B16 Melanoma; 10 mg/kg per injection
  % T/C (median lifetime): 183% and 160%
  cures (live animals day 60): 1
B16 Melanoma; 20 mg/kg per injection
  % T/C (median lifetime): 201% and 160%
B16 Melanoma; 40 mg/kg per injection
  % T/C (median lifetime): 218% and 177%
  cures (live animals day 60): 2
B16 Melanoma; listed as 1, sodium salt
  antitumor activity (in words): improved antitumor activity as compared to the free acid
Aqueous solubility; listed as 1, sodium salt
  aqueous solubility: about 0.1%

## CC(=O)O[C@H]1C(=O)[C@@]2(C)[C@H]([C@H](OC(=O)c3ccccc3)[C@]3(O)C[C@H](OC(=O)[C@H](OC(=O)CCC(=O)O)[C@@H](NC(=O)c4ccccc4)c4ccccc4)C(C)=C1C3(C)C)[C@]1(OC(C)=O)CO[C@@H]1C[C@@H]2O [Example 11]
B16 Melanoma; 6.25 mg/kg per injection
  % T/C (median lifetime): 125%
B16 Melanoma; 12.5 mg/kg per injection
  % T/C (median lifetime): 134%
B16 Melanoma; 25 mg/kg per injection
  % T/C (median lifetime): 176%
B16 Melanoma; 50 mg/kg per injection
  % T/C (median lifetime): 241%
B16 Melanoma
  antitumor activity (in words): much more active than the compound of Example 12
Aqueous solubility
  aqueous solubility: about 1%
  aqueous solubility (in words): greatly improved aqueous solubility; also recorded: although still soluble, the solutions were not clear and became very viscous
